Assay results published in patent US12357553B2, “Composition for treating hair loss or promoting hair growth, comprising piperonylic acid” (HESED BIO CO., LTD., priority 2017, dated 2025).

How the values were obtained:
[1] = tested on: AKT; assay: AKT activation (phosphorylation) in HaCaT cells, Western blotting; type: cell-based
Experimental: (§1) It is well known that the activation of extracellular signal-regulated kinase (ERK) and protein kinase B (AKT) are induced by the EGFR activation and transmit signals required for cell growth and survival. Accordingly, as the activation of EGFR by piperonylic acid was verified in Examples 2 and 3, it was determined whether ERK and AKT, the downstream of EGFR, were also activated by piperonylic acid. Specifically, after HaCaT cells were cultured in a serum-free medium, the cells were treated with piperonylic acid at 0, 25, and 100 μM, and then ERK and AKT, which were activated when phsphorylated, were analyzed by Western blotting method. As antibodies, phosphor-site specific antibodies which are labeling factors of activated ERK and AKT and antibodies that measure total ERK and AKT were used, and GAPDH expressed from a housekeeping gene was measured in order to correct the amount of total proteins between lanes.
(§2) Subsequently, in order to confirm the pattern of ERK and AKT activities by piperonylic acid treatment over time, HaCaT cells cultured in a serum-free medium were treated with piperonylic acid, and then the activity pattern over time was analyzed.
(§3) In order to verify that the activation of ERK and AKT by piperonylic acid were induced by EGFR, the activity of EGFR was suppressed by treating cells with tyrphostin AG1478 which is an EGFR antagonist, and then the activities of ERK and AKT by piperonylic acid were analyzed.

[2] = tested on: c-myc, c-jun, c-fos, and egr-1 genes; assay: Change in gene expression in HaCaT cells (real-time quantitative PCR, Western blotting); type: cell-based
Text: Signaling by EGFR induces gene expression that is important for cell growth and survival via important signaling mediator proteins which are ERK and AKT. It is well known that c-myc, c-jun, c-fos, and egr-1 genes are genes which are regulated by EGFR and promote cell growth and survival. […] Specifically, a Tri-reagent was used for mRNA extraction, cDNA was made by a reverse transcription polymerase chain reaction (RT-PCR) using a poly-A primer and a reverse transcriptase, and the amount of each mRNA was measured using real-time quantitative PCR. The amount of each mRNA was corrected with the amount of β-actin which is a housekeeping gene.

[3] = tested on: ERK; assay: ERK activation (phosphorylation) in HaCaT cells, Western blotting; type: cell-based
Experimental: as §1, §2, §3

[4] = tested on: dermal papilla cells related to androgenic alopecia; assay: Scratch (yellow tip) proliferation assay in dermal papilla cells related to androgenic alopecia; type: cell-based, human; settings: 100 μM, 24 hours and 48 hours, serum-free, vs DMSO
Text: Meanwhile, in order to investigate the proliferation pattern of dermal papilla cells related to androgenic alopecia during treatment with piperonylic acid, a 12-well cell culture plate was fully filled with the dermal papilla cells, and the cells were injured using a yellow tip. […] A solvent DMSO was used as a negative control.

[5] = tested on: HaCaT cells; assay: Resistance to UVB-induced cell damage, cell viability by CCK-8; type: cell-based; settings: UVB at 25 mJ/cm^2, 100 μM; negative control 84%
Experimental: Among the ultraviolet wavelengths, the UVB wavelength corresponding to 280 to 315 nm penetrates the epidermal layer where many keratinocytes are present to cause cell damage. […] The solvent DMSO was used as a negative control, and cell viability was measured using the CCK-8 method used in Example 7.

[6] = biological target: T1, EGFR (Homo sapiens, UniProt P00533); assay: Tyrosine phosphorylation of EGFR in HaCaT cells (immunoprecipitation, Western blotting); type: cell-based; set-up: endogenous in cells; host or cells: HaCaT cells; settings: 100 μM for 10 minutes, compared to DMSO
Experimental: In order to confirm whether the binding of piperonylic acid with EGFR directly induces the EGFR activation, HaCaT cells cultured in a serum-free medium were treated with piperonylic acid at a concentration of 100 μM for 10 minutes, and then the activation was measured through an increasing tyrosine phosphorylation of EGFR. Specifically, after only EGFR was precipitated from 500 μg of cell lysate by immunoprecipitation using anti-EGFR antibody and protein-G agarose beads, the level of tyrosine phosphorylation was analyzed by Western blotting method.

[7] = biological target: T1, EGFR; assay: Pull-down of EGFR from HaCaT cell lysate with piperonylic acid-conjugated Sepharose 4B bead, Western blotting; type: binding; set-up: endogenous in cells; host or cells: HaCaT cells; settings: 100 μM of free piperonylic acid added with the cell lysate
Experimental: In order to investigate the mechanism of EGFR activation by piperonylic acid confirmed in Example 2, it was confirmed in the present example whether piperonylic acid could interact with EGFR. For this purpose, piperonylic acid-4B bead was manufactured by conjugating piperonylic acid to a Cyanogen bromide-activated-Sepharose 4B bead purchased from Sigma-Aldrich. Equal amounts of HaCaT cell lysates were incubated with piperonylic acid-4B bead and control-4B used as the control, and proteins bound to the bead were analyzed by the Western blotting method. An anti-EGFR antibody was used in order to measure EGFR among the precipitated proteins, and anti-Actin and anti-GAPDH antibodies against actin and GAPDH proteins present in large amounts as housekeeping genes were used in order to support that the binding to piperonylic acid was selective.

[8] = biological target: T1, EGFR; assay: EGFP-SH2 biosensor system measuring EGFR activation (internalization) in A549 cells; type: cell-based; settings: 100 μM, compared to DMSO control
Experimental: Using these characteristics, a biosensor system was manufactured such that EGFR internalization by the EGFR activation could be measured by a fluorescent protein. Specifically, an EGFP-SH2 vector was manufactured by removing only the SH2 domain of Grb2 and inserted it in an enhanced green fluorescent protein (EGFP) vector using recombinant DNA technology, and then introduced it into A549 cells for expression.
After being cultured in a serum-free medium for 24 hours, the cells were treated with piperonylic acid.

[9] = tested on: HaCaT cells; assay: Growth promotion of keratinocytes by CCK-8 assay; type: cell-based; settings: 50 μM and 100 μM, 24 hours, serum-free, compared to the negative control
Experimental: Cell counting kit-8 (CCK-8) is a water-soluble tetrazolium salt reagent called WST-8, and forms orange water-soluble formazan by a dehydrogenase in the mitochondria of living cells. The absorbance of the orange wavelength at 450 nm as indicated by CCK-8 reflects the number of cells, and thus has been used to measure cell growth and proliferation. The growth promotion efficacy of keratinocytes, HaCaT cells, was measured by CCK-8 assay using non-cytotoxic piperonylic acid at a concentration of 50 μM and 100 μM. Specifically, after 1×10^4 HaCaT cells were cultured on a 96-well plate for 24 hours, growth factors in the medium were removed by exchanging the medium with a serum-free medium, and then the cells were treated with piperonylic acid. […] After the cells were cultured for 24 hours, the cell growth was analyzed by treating the cells with CCK8 and measuring the absorbance at 450 nm.

[10] = tested on: HaCaT cells; assay: Cytotoxicity by MTT in HaCaT keratinocytes; type: cell-based
Experimental: The cytotoxicity of piperonylic acid was measured using HaCaT cells which are keratinocytes. When cells are treated with a yellow water-soluble substrate MTT tetrazolium, the substrate is reduced to MTT formazan by mitochondrial enzymes and the color changes to blue-violet. Since the more living cells there are, the darker the blue-violet color appears, the blue-violet absorbance at 540 nm reflects the concentration of living cells. Specifically, after cells were cultured fully in each well of a 96-well plate, cells were treated with piperonylic acid at a concentration of 0, 25, 50, 100, 250, and 500 μM and cultured at 37° C. in a 5% CO2 incubator for 24 hours and 48 hours, and then the viability of cells was measured by an MTT reagent. A control (0 μM) that had not been treated with piperonylic acid was treated with an equal amount of solvent, DMSO.

[11] = tested on: dermal papilla cells related to androgenic alopecia; assay: Proliferation of dermal papilla cells related to androgenic alopecia by MTT; type: cell-based, human; settings: 50 μM, 24 hours, serum-free, vs DMSO
Text: The dermal papilla cells related to androgenic alopecia used in the experiment were a cell line that was immortalized by inserting hTERT and SV40-Tag into dermal papilla cells (DPCs, passage 1) derived from male androgenic alopecia patients, and purchased from Epibiotech Co., Ltd. and used. The proliferation of dermal papilla cells was confirmed using MTT tetrazolium. MTT tetrazolium is reduced to MTT formazan by intracellular mitochondrial enzymes, and at this time, the yellow color turns blue violet. The more cells there are, the stronger the reduction, so a stronger blue violet color appears, and the concentration of living cells is measured by measuring the absorbance of the blue violet color at 540 nm. Specifically, 1×10^4 cells are aliquoted into 96-well cell culture plates and cultured for 24 hours. Thereafter, a serum-free medium was treated with 50 μM piperonylic acid, and then cultured for 24 hours. Then, after the cells were treated with the MTT reagent for 2 hours, cell growth was analyzed by adding DMSO thereto and confirming the color development at […]. A solvent DMSO was used as a negative control.

[12] = tested on: cyclin D; assay: Cyclin D protein level in dermal papilla cells, western blotting; type: cell-based, human; settings: 25 and 50 μM, 24 hours, compared to the control
Experimental: In addition, in order to investigate a gene expression pattern involved in the proliferation of dermal papilla cells related to androgenic alopecia, the human dermal papilla cells were cultured in a serum-free medium for 24 hours, and then treated with 25 and 50 μM piperonylic acid, respectively. The cells were treated with a drug, and after 24 hours, the levels of cyclin D were analyzed by the western blotting method. As an antibody, GAPDH, which is always expressed constantly, was used to correct the total protein amount between the cyclin D antibody and each lane. A solvent DMSO was used as a negative control.

[13] = tested on: HaCaT cells; assay: Wound healing assay in keratinocytes; type: cell-based; settings: 50 μM and 100 μM, culturing for 3 days, vs negative control
Experimental: Further, the cell growth promotion efficacy by piperonylic acid was confirmed through a wound healing assay. Specifically, after HaCaT cells were cultured fully on a 12-well plate, a wound area was formed using a yellow tip, and the cells were treated with piperonylic acid at 50 μM and 100 μM after exchanging the medium with a serum-free medium.

[14] = AG1478 at 200 nM for 10 minutes, then piperonylic acid
[15] = 100 μM, 10 minutes, compared to the control
[16] = piperonylic acid treatment, serum-free medium

T1 sequence (P00533 25-1210): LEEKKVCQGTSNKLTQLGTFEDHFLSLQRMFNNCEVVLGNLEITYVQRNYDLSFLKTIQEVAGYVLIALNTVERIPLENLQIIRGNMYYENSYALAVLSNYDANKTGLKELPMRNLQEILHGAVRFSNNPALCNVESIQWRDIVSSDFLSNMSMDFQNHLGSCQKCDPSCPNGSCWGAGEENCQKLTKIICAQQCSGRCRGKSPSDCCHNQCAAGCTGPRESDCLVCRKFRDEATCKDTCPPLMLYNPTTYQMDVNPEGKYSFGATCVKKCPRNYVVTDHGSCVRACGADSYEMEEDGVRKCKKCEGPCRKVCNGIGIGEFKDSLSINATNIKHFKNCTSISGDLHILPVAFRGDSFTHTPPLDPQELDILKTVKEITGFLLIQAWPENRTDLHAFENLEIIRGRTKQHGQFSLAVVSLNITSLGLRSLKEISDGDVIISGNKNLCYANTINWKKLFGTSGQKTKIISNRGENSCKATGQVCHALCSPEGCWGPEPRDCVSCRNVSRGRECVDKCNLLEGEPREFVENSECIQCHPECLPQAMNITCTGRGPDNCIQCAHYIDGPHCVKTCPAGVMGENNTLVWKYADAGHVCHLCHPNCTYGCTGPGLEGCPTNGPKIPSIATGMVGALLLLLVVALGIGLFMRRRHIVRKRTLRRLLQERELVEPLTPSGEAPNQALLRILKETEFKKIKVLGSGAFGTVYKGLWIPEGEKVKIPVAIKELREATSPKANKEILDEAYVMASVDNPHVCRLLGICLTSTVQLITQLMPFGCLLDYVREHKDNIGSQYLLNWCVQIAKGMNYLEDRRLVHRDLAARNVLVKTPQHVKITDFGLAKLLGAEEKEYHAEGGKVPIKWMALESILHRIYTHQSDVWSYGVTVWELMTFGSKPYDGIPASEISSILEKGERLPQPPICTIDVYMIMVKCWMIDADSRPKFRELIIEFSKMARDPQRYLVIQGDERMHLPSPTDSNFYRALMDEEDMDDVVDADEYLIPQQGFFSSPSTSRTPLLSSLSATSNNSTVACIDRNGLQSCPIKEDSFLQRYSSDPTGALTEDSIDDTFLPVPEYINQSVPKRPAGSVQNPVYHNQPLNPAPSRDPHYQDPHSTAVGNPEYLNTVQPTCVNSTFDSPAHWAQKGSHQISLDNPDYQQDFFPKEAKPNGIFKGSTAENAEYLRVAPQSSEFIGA

| Compound | AKT activation by piperonylic acid after EGFR antagonist [1, 14] | gene expression of c-fos and egr-1 increased by piperonylic acid ([2]; AG1478 pre-treatment, piperonylic acid at 100 μM, 2 hours) | ERK activation by piperonylic acid after EGFR antagonist [3, 14] | AKT activation [1, 15] [fold] | pattern of AKT activity over time [1, 16] | cell proliferation of dermal papilla cells (scratch) [4] | cells survived after UVB [5] [%] | tyrosine phosphorylation of EGFR [6] [fold] | amount of EGFR bound to bead under competition [7] | EGFR activation in biosensor system (change in fluorescence signal) [8] | expression of Egr-1 and c-Fos proteins ([2]; 100 μM) | mRNA expression of c-jun ([2]; 100 μM, 0, 1, 2, and 6 hours) | cell growth and proliferation (CCK-8) [9] | cytotoxicity to keratinocytes ([10]; 0-500 μM, 24 and 48 hours) | difference in cell viability from control ([10]; 500 μM for 48 hours) | ERK activation [3, 15] [fold] | pattern of ERK activity over time [3, 16] | cell proliferation of dermal papilla cells (MTT) [11] | expression of cyclin D protein [12] | filling of wound area [13] |
| --- | --- | --- | --- | --- | --- | --- | --- | --- | --- | --- | --- | --- | --- | --- | --- | --- | --- | --- | --- | --- |
| COc1cc2ncnc(Nc3cccc(Cl)c3)c2cc1OC [AG1478, tyrphostin AG1478, reference compound] | not activated | completely suppressed | not activated |  |  |  |  |  |  |  |  |  |  |  |  |  |  |  |  |  |
| O=C(O)c1ccc2c(c1)OCO2 [piperonylic acid] |  |  |  | 2.1 | rapidly induced for 5 to 10 minutes | promoted cell proliferation | 89 | 1.8 | the amount of EGFR bound thereto was reduced | EGFR was activated | increase in expression | increasing tendency | significantly increased | very low | about 10% | 3.3 | rapidly induced for 5 to 10 minutes | promoted cell proliferation | significantly increased | more rapidly filled |
